In ChEMBL document CHEMBL4118127, “Structure activity relationship studies on rhodanines and derived enethiol inhibitors of metallo-β-lactamases” (Bioorg Med Chem, 2018):
Calls of active or inactive are those of the source.

Legend:
[1] = biological target: Beta-lactamase CTX-M (Escherichia coli) (UniProt Q9EXV5); assay: Inhibition of recombinant Escherichia coli EO516 N-terminal His6-tagged CTX-M using FC5 as substrate at 200 uM preincubated at 10 to 300 mins followed by substrate addition
[2] = biological target: Beta-lactamase OXA-10 (Pseudomonas aeruginosa) (UniProt P14489); assay: Inhibition of recombinant Pseudomonas aeruginosa OXA-10 at 200 uM using FC5 as substrate
[3] = biological target: Beta-lactamase TEM (Bacteria) (UniProt P62593); assay: Inhibition of recombinant N-terminal His-tagged Escherichia coli TEM1 (24 to 286 residues) expressed in Escherichia coli BL21(DE3) at 200 uM using FC5 as substrate
[4] = biological target: Beta-lactamase (Escherichia coli K-12) (UniProt P00811); assay: Inhibition of recombinant Escherichia coli AmpC at 200 uM using FC5 as substrate preincubated at 10 to 300 mins followed by substrate addition

Measured: inhibition

Beta-lactamase OXA-10 (Pseudomonas aeruginosa), sequence (P14489 whole entry, the tested form may be a part): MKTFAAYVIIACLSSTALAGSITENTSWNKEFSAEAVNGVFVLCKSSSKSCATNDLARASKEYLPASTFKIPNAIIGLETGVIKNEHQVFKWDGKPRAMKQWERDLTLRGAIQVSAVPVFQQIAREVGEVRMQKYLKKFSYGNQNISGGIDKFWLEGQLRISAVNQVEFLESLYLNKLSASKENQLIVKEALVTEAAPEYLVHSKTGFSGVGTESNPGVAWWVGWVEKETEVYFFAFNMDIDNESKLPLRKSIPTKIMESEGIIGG
Beta-lactamase TEM (Bacteria), sequence (P62593 whole entry, the tested form may be a part): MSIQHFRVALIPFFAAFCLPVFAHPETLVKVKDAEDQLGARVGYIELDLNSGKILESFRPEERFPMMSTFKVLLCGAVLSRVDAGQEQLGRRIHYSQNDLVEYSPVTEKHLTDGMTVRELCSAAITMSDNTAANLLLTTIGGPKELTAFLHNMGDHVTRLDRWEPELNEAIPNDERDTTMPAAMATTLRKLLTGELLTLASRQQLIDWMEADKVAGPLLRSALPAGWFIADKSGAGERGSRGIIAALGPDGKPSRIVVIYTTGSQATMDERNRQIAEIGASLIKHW
Beta-lactamase (Escherichia coli K-12), sequence (P00811 whole entry): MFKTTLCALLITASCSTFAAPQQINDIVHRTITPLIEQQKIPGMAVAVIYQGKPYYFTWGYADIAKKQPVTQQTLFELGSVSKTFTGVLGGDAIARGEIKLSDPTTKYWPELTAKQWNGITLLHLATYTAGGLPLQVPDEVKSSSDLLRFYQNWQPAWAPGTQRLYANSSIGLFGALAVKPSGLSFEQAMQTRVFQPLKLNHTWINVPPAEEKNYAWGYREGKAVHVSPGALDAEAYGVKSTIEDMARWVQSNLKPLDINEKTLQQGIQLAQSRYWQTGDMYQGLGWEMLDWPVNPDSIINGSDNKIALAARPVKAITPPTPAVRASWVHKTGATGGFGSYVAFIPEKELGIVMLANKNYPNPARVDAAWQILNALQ

CN1CCN(NC(=O)CN2C(=O)/C(=C/c3ccccc3Br)SC2=S)CC1
inactive: all assays above

O=C(O)CN1C(=O)/C(=C/c2csc3ccccc23)SC1=S
inactive: all assays above

CN1CCN(NC(=O)CN2C(=O)/C(=C/c3c(F)cccc3Cl)SC2=S)CC1
inactive: all assays above

O=C(O)/C(S)=C/c1c(F)ccc(F)c1F
inactive: all assays above

O=C(O)CN1C(=O)/C(=C/c2ccc(F)cc2)SC1=S
inactive: all assays above

CN1CCN(NC(=O)CN2C(=O)/C(=C/c3ccc(F)cc3)SC2=S)CC1
inactive: all assays above

O=C(O)CN1C(=O)/C(=C/c2ccccc2)SC1=S
inactive: all assays above

O=C(O)CN1C(=O)/C(=C/c2cc(Cl)ccc2Cl)SC1=S
inactive: all assays above

CN1CCN(NC(=O)CN2C(=O)/C(=C/c3c(Cl)ccc(Cl)c3Cl)SC2=S)CC1
inactive: all assays above

O=C(O)/C(S)=C/c1ccccc1
inactive: all assays above

O=C(O)CN1C(=O)/C(=C/c2cccc(Cl)c2Cl)SC1=S
inactive: all assays above

O=C(O)/C(S)=C/c1c(Cl)cccc1Cl
inactive: all assays above

O=C(O)CN1C(=O)/C(=C/c2ccc(Br)cc2)SC1=S
inactive: all assays above

O=C(O)/C(S)=C/c1ccccc1Br
inactive: all assays above

O=C(O)CN1C(=O)/C(=C/c2ccccc2Cl)SC1=S
inactive: all assays above

CN1CCN(NC(=O)CN2C(=O)/C(=C/c3cc(Cl)ccc3Cl)SC2=S)CC1
inactive: all assays above

O=C(O)CN1C(=O)/C(=C/c2c(F)ccc(F)c2F)SC1=S
inactive: all assays above

O=C(O)CN1C(=O)/C(=C/c2c(Cl)cccc2Cl)SC1=S
inactive: all assays above

O=C(O)/C(S)=C/c1c(F)cccc1Cl
inactive: all assays above

CN1CCN(NC(=O)CN2C(=O)/C(=C/c3c(F)ccc(F)c3F)SC2=S)CC1
inactive: all assays above

Cc1ccc(/C=C2\SC(=S)N(CC(=O)NN3CCN(C)CC3)C2=O)cc1
inactive: all assays above

O=C(O)CN1C(=O)/C(=C/c2c(F)cccc2Cl)SC1=S
inactive: all assays above

COc1ccc(/C=C2\SC(=S)N(CC(=O)O)C2=O)cc1
inactive: all assays above

CN1CCN(NC(=O)CN2C(=O)/C(=C/c3ccccc3I)SC2=S)CC1
inactive: all assays above

Cc1cccc(C)c1/C=C1\SC(=S)N(CC(=O)O)C1=O
inactive: all assays above

O=C(O)CN1C(=O)/C(=C/c2ccccc2I)SC1=S
inactive: all assays above

CN1CCN(NC(=O)CN2C(=O)/C(=C/c3csc4ccccc34)SC2=S)CC1
inactive: all assays above

O=C(O)/C(S)=C/c1csc2ccccc12
inactive: all assays above

CN1CCN(NC(=O)CN2C(=O)/C(=C/c3c(Cl)cccc3Cl)SC2=S)CC1
inactive: all assays above

Cc1cccc(C)c1/C=C(\S)C(=O)O
inactive: all assays above

O=C(O)CN1C(=O)/C(=C/c2c(F)cccc2F)SC1=S
inactive: all assays above

O=C(O)CN1C(=O)/C(=C/c2ccccc2F)SC1=S
inactive: all assays above

O=C(O)/C(S)=C/c1ccccc1Cl
inactive: all assays above

O=C(O)/C(S)=C/c1ccc(F)cc1
inactive: all assays above

COc1ccc(/C=C(\S)C(=O)O)cc1
inactive: all assays above

CN1CCN(NC(=O)CN2C(=O)/C(=C/c3ccccc3F)SC2=S)CC1
inactive: all assays above

CN1CCN(NC(=O)CN2C(=O)/C(=C/c3c(F)cccc3F)SC2=S)CC1
inactive: all assays above

CN1CCN(NC(=O)CN2C(=O)/C(=C/c3ccccc3Cl)SC2=S)CC1
inactive: all assays above

Cc1cccc(C)c1/C=C1\SC(=S)N(CC(=O)NN2CCN(C)CC2)C1=O
inactive: all assays above

O=C(O)/C(S)=C/c1c(Cl)ccc(Cl)c1Cl
inactive: all assays above

O=C(O)/C(S)=C/c1ccccc1F
inactive: all assays above

O=C(O)/C(S)=C/c1ccccc1Cc1ccc2ccccc2c1
inactive: all assays above

O=C(O)/C(S)=C/c1c(F)cccc1F
inactive: all assays above

Cc1ccc(/C=C2\SC(=S)N(CC(=O)O)C2=O)cc1
inactive: all assays above

O=C(O)CN1C(=O)/C(=C/c2ccccc2Br)SC1=S
inactive: all assays above

CN1CCN(NC(=O)CN2C(=O)/C(=C/c3cccc(Cl)c3Cl)SC2=S)CC1
inactive: all assays above

O=C(O)/C(S)=C/c1cccc(Cl)c1Cl
inactive: all assays above

Cc1ccc(/C=C(\S)C(=O)O)cc1
inactive: all assays above

O=C(O)/C(S)=C/c1cc(Cl)ccc1Cl
inactive: all assays above

CN1CCN(NC(=O)CN2C(=O)/C(=C/c3ccccc3)SC2=S)CC1
inactive: all assays above
